Assay [1] relates to Ba/F3-TPM3-NTRK1-G667C cells. Put plainly: Growth inhibition of Ba/F3-TPM3-NTRK1-G667C cells (Cell Titer-Glo). Format: cell-based. The following applies: 72 hours, CTG; read-out: inhibitory activity IC50 Ba/F3-TPM3-NTRK1-G667C. The protocol: (§1) Then the solutions were subjected to a gradient dilution with DMSO: a clean, sterile V-bottom 96-well microplate was placed in the biological safety cabinet. First, 4 μL of DMSO was added to well B2 and 10 μL of DMSO was added to wells B3-B11 respectively; Next, 6 μL of the 10 mM solution was added to well B2. The microplate was pipetted up and down 10 times for mixing. […] Mixing was performed by pipetting up and down 10 times. The solution was diluted in order until well B10. only DMSO was added to well B11 (no compound).
(§2) 6× Compound Solution Preparation (6-fold dilution, × represents dilution factor): (Initial final concentration: 10 μM), a clean, sterile V-bottom 96-well microplate was placed in the biological safety cabinet. 99 μL of cell culture medium was added to each well from B2 to G11. By using a 12-channel pipettor, 1 μL of the compound solution prepared in the previous step was added into the corresponding wells. The solutions were pipetted up and down 10 times to mix the solutions. The highest concentration of compound in this step was 60 μM.
(§3) Treatment of Cells: the above-prepared cell culture plate was taken out of the incubator. 20 μL of compound solution from each well was added to the corresponding cell culture wells. The lowest pipetting speed was used and touching the bottom of the plate was avoided. The culture plate was gently shaked to mix the compound solution, then the plate was returned to the incubator for further culture for 72 hours.
(§4) The highest treatment concentration of the compound was 10 μM. After 72 hours of treatment, the Cell Titer-Glo (CTG) assay was performed. First, the cell culture plate was removed from the CO2 incubator and allowed to stand at room temperature for 30 minutes to ensure uniform temperature of the plate. The pre-prepared Cell Titer-Glo reagent (following the manufacturer's instructions) was taken and allowed to stand at room temperature to thaw. 60 μL of Cell Titer-Glo reagent was added to each well containing cells. The cells were incubated on a horizontal shaker in a dark place at 225 rpm for 1 hour at room temperature. Then, a Tecan Spark microplate reader was used to read the plate using chemiluminescence according to the manufacturer's instructions.

The subject of assay [2] is Ba/F3-TPM3-NTRK1-WT cells. Put plainly: Growth inhibition of Ba/F3-TPM3-NTRK1-WT cells (Cell Titer-Glo). Format: cell-based. The conditions noted are these: 72 hours, CTG; read-out: inhibitory activity IC50 Ba/F3-TPM3-NTRK1-WT. The protocol:
as §1, §2, §3, §4

Assay [3] deals with Ba/F3-TPM3-NTRK1-G595R cells. Put plainly: Growth inhibition of Ba/F3-TPM3-NTRK1-G595R cells (Cell Titer-Glo). The assay is classed as cell-based. The conditions noted are these: 72 hours, CTG; read-out: inhibitory activity IC50 Ba/F3-TPM3-NTRK1-G595R. The protocol: as §1, §2, §3, §4
In assay [4] the target is TRKA^WT kinase (Homo sapiens (Human), UniProt P04629). Kind of assay: Inhibitory activity against TRKA WT kinase (Caliper mobility shift). The assay is classed as biochemical. The following applies: in vitro kinase assay. The protocol: Kinase Assay Process: 1× Kinase buffer was prepared. […] The compounds were serially diluted into 10 concentrations ([…], 0.15, and 0.05 nM) using a Precision 3-fold dilution method. By using the Echo550 liquid handler, 250 nL of the 100-fold final concentration compound was transferred to an OptiPlate-384F plate. a 2.5× final concentration kinase solution was prepared using 1× Kinase buffer. 10 μL of the 2.5× final concentration kinase solution was added to the compound wells and the positive control wells, and 10 μL of 1× Kinase buffer was added to the negative control wells. The plate was centrifuged at 1000 rpm for 30 seconds, vortexed for mixing, and then incubated at room temperature for 10 minutes. A mixture of 5/3× final concentration of ATP and Kinase Substrate 22 was prepared using 1× Kinase buffer. 15 μL of the mixture of the 5/3× final concentration ATP and the substrate was added to initiate the reaction, the 384-well plate was centrifuged at 1000 rpm for 30 seconds, vortexed for mixing, and incubated at room temperature for the required time. 30 μL of the termination solution was added to stop the kinase reaction, the plate was centrifuged at 1000 rpm for 30 seconds, and vortexed for mixing. The conversion rate was measured using the Caliper EZ Reader.
TRKA^WT kinase, sequence (P04629 33-796): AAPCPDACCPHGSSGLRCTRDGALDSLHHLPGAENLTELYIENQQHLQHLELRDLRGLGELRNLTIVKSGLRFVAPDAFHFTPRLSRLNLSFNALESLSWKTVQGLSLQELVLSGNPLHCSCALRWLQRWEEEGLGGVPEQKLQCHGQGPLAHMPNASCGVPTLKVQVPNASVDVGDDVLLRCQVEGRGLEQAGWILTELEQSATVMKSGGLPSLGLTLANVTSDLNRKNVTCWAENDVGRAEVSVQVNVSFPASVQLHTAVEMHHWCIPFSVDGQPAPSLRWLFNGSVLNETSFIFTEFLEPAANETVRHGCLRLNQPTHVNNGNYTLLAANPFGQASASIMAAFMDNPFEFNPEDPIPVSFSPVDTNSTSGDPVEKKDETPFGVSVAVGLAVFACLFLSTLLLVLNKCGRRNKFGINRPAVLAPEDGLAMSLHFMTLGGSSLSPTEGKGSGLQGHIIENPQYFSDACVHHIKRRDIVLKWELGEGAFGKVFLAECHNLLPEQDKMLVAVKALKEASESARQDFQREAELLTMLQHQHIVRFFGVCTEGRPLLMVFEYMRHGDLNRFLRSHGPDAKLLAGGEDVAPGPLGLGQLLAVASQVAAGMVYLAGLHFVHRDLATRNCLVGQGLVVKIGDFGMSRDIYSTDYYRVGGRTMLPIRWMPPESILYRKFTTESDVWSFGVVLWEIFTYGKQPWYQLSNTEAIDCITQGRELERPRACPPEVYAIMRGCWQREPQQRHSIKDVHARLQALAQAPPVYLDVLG
Data Analysis: the inhibition rate was calculated as follows:
% Inhibition=(Conversion %_max−conversion %_sample)÷(Conversion %_max−conversion %_min)×100
Conversion %_sample is the conversion rate reading for the sample; Conversion %_min is the average value of the negative control wells, representing the conversion rate for wells without enzyme activity: Conversion %_max is the average value of the positive control wells, representing the conversion rate for wells without compound inhibition. A dose-response curve was fitted using the log concentration of the compound as the X-axis and the percentage inhibition as the Y-axis. The log(inhibitor) vs. response-variable slope of the GraphPad Prism 5 software was used to fit the dose-response curve, and the IC50 value for each compound was obtained. The calculation formula is:
Y=Bottom+(Top−Bottom)/(1+10^((Log IC50−X)*HillSlope)).
wherein X represents the concentration of the compound to be tested; Y represents the inhibition rate at the concentration X: Top refers to the maximum response: Bottom refers to the baseline response; HillSlope refers to the slope of the curve (i.e., the gradient).

For `Fc1cnc2c(c1)[C@H]1C[C@H](F)CN1c1ccc3ncc(n3n1)-c1cc(ncn1)CO2` [Example I-60, (14bR,16S,E)-13,16-difluoro-14b,15,16,17-tetrahydro-9H-1,19-etheno-4,8-(metheno)imidazo[5,1-h]pyrido[3,2-n]pyrrolo[1,2-l][1]oxa[4,6,9,10,12]pentaazacyclopentadecine], the IC50 in assay [1] amounted to 22.5 nM; in assay [2], 0.13 nM; in assay [3], 2.5 nM.
Regarding `Fc1ccc2c(c1)[C@H]1C[C@H](F)CN1c1ccc3ncc(n3n1)-c1nccc(n1)CO2` [Example I-62, (14bR,16S,E)-13,16-difluoro-14b,15,16,17-tetrahydro-9H-4,8-(azeno)-1,19-ethenobenzo[b]imidazo[1,5-h]pyrrolo[2,1-d][1]oxa[5,7,8,11]tetraazacyclopentadecine], the IC50 in assay [1] was 13.6 nM; in assay [2], 0.21 nM; in assay [3] it was 0.7 nM.
`Fc1ccc2c(c1)[C@H]1C[C@H](F)CN1c1ccc3ncc(n3n1)-c1cc(ccn1)CO2` [Example I-50, (14bR,16S,E)-13,16-difluoro-14b,15,16,17-tetrahydro-9H-1,19-etheno-4,8-(metheno)benzo[b]imidazo[1,5-h]pyrrolo[2,1-d][1]oxa[5,7,8,11]tetraazacyclopentadecine]: the IC50 amounted to 0.3 nM in assay [1], 0.1 nM in assay [2] and 0.2 nM in assay [3].
The matching figures for `CC1Nc2ccc3ncc(n3n2)-c2cc(ncn2)COc2ccccc21` (centres unmarked) [Example I-10, (E)-6-methyl-4-oxa-7-aza-1(3,6)-imidazo[1,2-b]pyridazina-2(4,6)-pyrimidine-5(1,2)-benzenacycloheptaphane]: 378 nM, 4.6 nM and 378 nM.
For `Fc1ccc2c(c1)[C@H]1C[C@H](F)CN1c1ccc3ncc(n3n1)-c1nccc(n1)CCO2` [Example I-86, (3^2R,3^4S,E)-3^4,4^5-difluoro-5-oxa-2(3,6)-imidazo[1,2-b]pyridazina-1(2,4)-pyrimidina-3(1,2)-pyrrolidina-4(1,2)-benzenacycloheptaphane] the same measures were 13.9 nM, 0.25 nM and 2.3 nM.
The matching figures for `Fc1ccc2c(c1)[C@H]1C[C@H](F)CN1c1ccc3ncc(n3n1)-c1cc(cnn1)CO2` [Example I-66, (14bR,16S,E)-13,16-difluoro-14b,15,16,17-tetrahydro-9H-1,19-etheno-4,8-(metheno)benzo[n]imidazo[5,1-h]pyrrolo[1,2-l][1]oxa[5,6,9,10,12]pentaazacyclopentadecine]: 1.3 nM, 0.05 nM and 0.4 nM.
For `C[C@@H]1CCc2ncc(F)cc2[C@H]2CCCN2c2ccn3ncc(c3n2)C(=O)N1` [LOXO-195, reference compound], the values for the IC50 in assay [1], in assay [2] and in assay [3] were 169 nM, 3.07 nM and 10 nM, respectively.
For `Fc1ccc2c(c1)[C@H]1C[C@H](F)CN1c1ccc3ncc(n3n1)-c1cc(cnn1)CCO2` [Example I-92, (3^2R,3^4S,E)-3^4,4^5-difluoro-5-oxa-2(3,6)-imidazo[1,2-b]pyridazina-1(3,5)-pyridazina-3(1,2)-pyrrolidina-4(1,2)-benzenacycloheptaphane] the same measures were 4.3 nM, 0.18 nM and 0.6 nM.
For the molecule `Fc1ccc2c(c1)[C@H]1C[C@H](F)CN1c1ccc3ncc(n3n1)-c1cc(ncn1)CCO2` [Example I-70, (3^2R,3^4S,E)-3^4,4^5-difluoro-5-oxa-2(3,6)-imidazo[1,2-b]pyridazina-1(4,6)-pyrimidina-3(1,2)-pyrrolidina-4(1,2)-benzenacycloheptaphane], the IC50 was 4.6 nM in assay [1], 0.12 nM in assay [2] and 1.1 nM in assay [3].
The matching figures for `Fc1cnc2c(c1)[C@H]1C[C@H](F)CN1c1ccc3ncc(n3n1)-c1cc(ncn1)CCO2` [Example I-72, (3^2R,3^4S,E)-3^4,4^5-difluoro-5-oxa-2(3,6)-imidazo[1,2-b]pyridazina-1(4,6)-pyrimidina-4(3,2)-pyridina-3(1,2)-pyrrolidinacycloheptaphane]: 7.4 nM, 0.07 nM and 1.5 nM.
For `Fc1ccc2c(c1)[C@H]1C[C@H](F)CN1c1ccc3ncc(n3n1)-c1cc(ncn1)CO2` [Example I-58, (14bR,16S,E)-13,16-difluoro-14b,15,16,17-tetrahydro-9H-1,19-etheno-4,8-(metheno)benzo[n]imidazo[5,1-h]pyrrolo[1,2-l][1]oxa[4,6,9,10,12]pentaazacyclopentadecine] the same measures were 12.7 nM, 0.14 nM and 2.1 nM.
For `Fc1cnc2c(c1)[C@H]1C[C@H](F)CN1c1ccc3ncc(n3n1)-c1cc(cnn1)CO2` [Example I-68, (14bR,16S,E)-13,16-difluoro-14b,15,16,17-tetrahydro-9H-1,19-etheno-4,8-(metheno)imidazo[5,1-h]pyrido[3,2-n]pyrrolo[1,2-l][1]oxa[5,6,9,10,12]pentaazacyclopentadecine] the same measures were 2.8 nM, 0.06 nM and 1.6 nM.
For `Fc1cnc2c(c1)[C@H]1C[C@H](F)CN1c1ccc3ncc(n3n1)-c1cc(cnn1)CCO2` [Example I-94, (3^2R,3^4S,E)-3^4,4^5-difluoro-5-oxa-2(3,6)-imidazo[1,2-b]pyridazina-1(3,5)-pyridazina-4(3,2)-pyridina-3(1,2)-pyrrolidinacycloheptaphane], the IC50 in assay [1] was found to be 2.5 nM; in assay [2], 0.09 nM; in assay [3], 1 nM.
For `Fc1cnc2c(c1)[C@H]1C[C@H](F)CN1c1ccc3ncc(n3n1)-c1cc(ccn1)CCO2` [Example I-56, (3^2R,3^4S,E)-3^4,4^5-difluoro-5-oxa-2(3,6)-imidazo[1,2-b]pyridazina-1(2,4), 4(3,2)-dipyridina-3(1,2)-pyrrolidinacycloheptaphane] the same measures were 9.4 nM, 0.2 nM and 0.9 nM.
As for “(R)-(E)-4-methyl-6-oxa-3-aza-2(3,6)-imidazo[1,2-b]pyridazina-1(4,6)-pyrimidina-5(1,2)-benzenacyclooctaphane [Example I-33]”, the IC50 in assay [4] amounted to 5.9 nM.
On the same count and under the same terms, under `C[C@@H]1Nc2ccc3ncc(n3n2)-c2cc(ccn2)COc2c(F)cc(F)cc21` [Example I-17, (S)-(E)-5′,5′-difluoro-6-methyl-4-oxa-7-aza-1(3,6)-imidazo[1,2-b]pyridazine-2(2,4)-pyridina-5(1,2)-benzenacycloheptaphane] stands 5.2 nM.
